Where two headings read alike, the source gives them in different places.
How the values were obtained:
Assay type in all cases: cell-based
[1] = system: Salmonella Typhimurium TA102; assay: Ames test, plate incorporation method, TA102
Description: (§1) Salmonella Typhimurium TA97a, TA98, TA100, TA102, and TA1535 from MOLT OX, USA, were purchased from Shanghai Bioplus Biotech. Co., Ltd. The test was carried out using Salmonella typhimurium strains that were identified as meeting the requirements.
(§2) Rat liver S9 from Shanghai Bioplus Biotech. Co., Ltd.
(§3) The experiments were performed using the plate incorporation method.
(§4) Dose selection: The experiments were performed using 5 mg, 2.5 mg, 1.25 mg, 0.625 mg, 0.3125 mg, and 0.15625 mg per dish.
(§5) Test substance preparation: nitrosamine impurity compound P08 was prepared to a solution of 50 mg/ml with dimethyl-sulfoxide, and diluted with dimethyl-sulfoxide to give the solutions of 25 mg/ml, 12.5 mg/ml, 6.25 mg/ml, 3.125 mg/ml, and 1.5625 mg/ml successively.
(§6) 0.1 ml of frozen bacterial solutions TA97a, TA98, TA100, TA102 and TA1535 were inoculated into the 10 ml nutrient broth mediums respectively, and cultured at 37° C. (100/min) for 10 h with shaking (100 times/min). 2.0 ml of top layer medium containing 0.5 mmol/L histidine −0.5 mmol/L biotin was dispensed into test tubes, sterilized by 0.103 MPa for 20 min, and kept in a water bath at 50° C. Then, 0.1 ml of the test substance solution, 0.5 ml of the S9 mixture (when metabolic activation was required) and 0.1 ml of the bacterial solution were added into each tube successively, mixed sufficiently, and poured into the bottom layer agar plates quickly. Then, the plates were turned to distribute even. After being placed horizontally for condensation and solidification, the plates were inverted and incubated in an incubator at 37° C. for 48 h, and the number of reverse mutation colonies per dish was counted. Three parallel plates of each dose were made, containing the spontaneous reverse mutation group, the solvent control group and the positive control group.
(§7) The data were expressed as means±standards deviation (x±s), and SPSS 19.0 was used for calculation of data analysis.
(§8) If the test substance tested by the above test strain is negative both with and without S9, then the test substance is determined to be mutagenic negative.

[2] = system: Salmonella Typhimurium TA1535
Description: as §1, §2, §3, §4, §5, §6, §7, §8

Salmonella typhimurium = assay: Ames test, overall result determination; details: in the presence and absence of metabolic activation system
Description: Whether nitrosamine impurity compound P08 is genotoxic (capable of mutagenicity or carcinogenesis) was detected.
as §8

With `O=NN1CC2CC(C1)c1cc3nccnc3cc12` [P08] the “number of reverse mutation colonies per dish (x ± s)” value (from here on “number … per dish (x ± s)”) ([1]; TA102, +S9, 156.25 μg/dish) was 249 ± 13, the “number … per dish (x ± s)” value ([1]; TA102, +S9, 312.5 μg/dish) was 253 ± 24 and the “number … per dish (x ± s)” value ([1]; TA102, +S9, 625 μg/dish) was 296 ± 21. The “number … per dish (x ± s)” value ([1]; TA102, +S9, 1250 μg/dish) was 272 ± 17, the “number … per dish (x ± s)” value ([1]; TA102, +S9, 2500 μg/dish) was 283 ± 11 and the “number … per dish (x ± s)” value ([1]; TA102, +S9, 5000 μg/dish) was 320 ± 15. For the same compound, the “number … per dish (x ± s)” value ([1]; TA102, −S9, 156.25 μg/dish) was 208 ± 13, the “number … per dish (x ± s)” value ([1]; TA102, −S9, 312.5 μg/dish) was 237 ± 6 and the “number … per dish (x ± s)” value ([1]; TA102, −S9, 625 μg/dish) was 236 ± 20. For the same compound, the “number … per dish (x ± s)” value ([1]; TA102, −S9, 1250 μg/dish) was 245 ± 4, the “number … per dish (x ± s)” value ([1]; TA102, −S9, 2500 μg/dish) was 219 ± 11 and the “number … per dish (x ± s)” value ([1]; TA102, −S9, 5000 μg/dish) was 211 ± 8. The “number … per dish (x ± s)” value ([2]; TA1535, +S9, 156.25 μg/dish) was 21 ± 0, the “number … per dish (x ± s)” value ([2]; TA1535, +S9, 312.5 μg/dish) was 20 ± 3 and the “number … per dish (x ± s)” value ([2]; TA1535, +S9, 625 μg/dish) was 35 ± 7. For the same compound, the “number … per dish (x ± s)” value ([2]; TA1535, +S9, 1250 μg/dish) was 34 ± 3, the “number … per dish (x ± s)” value ([2]; TA1535, +S9, 2500 μg/dish) was 38 ± 5 and the “number … per dish (x ± s)” value ([2]; TA1535, +S9, 5000 μg/dish) was 46 ± 6. The “number of colonies relative to that of the solvent control” value ([2]; TA1535, no S9, 625 μg/dish) was “more than twice”, the “number of colonies relative to that of the solvent control” value ([2]; TA1535, with S9, 5000, 2500, 1250 and 625 μg/dish, dose-response relationship) was “more than twice” and the “number … per dish (x ± s)” value ([2]; TA1535, −S9, 156.25 μg/dish) was 23 ± 2. For the same compound, the “number … per dish (x ± s)” value ([2]; TA1535, −S9, 312.5 μg/dish) was 36 ± 1, the “number … per dish (x ± s)” value ([2]; TA1535, −S9, 625 μg/dish) was 42 ± 4 and the “number … per dish (x ± s)” value ([2]; TA1535, −S9, 1250 μg/dish) was 18 ± 2. For the same compound, the “number … per dish (x ± s)” value ([2]; TA1535, −S9, 2500 μg/dish) was 28 ± 2, the “number … per dish (x ± s)” value ([2]; TA1535, −S9, 5000 μg/dish) was 20 ± 2 and the “mutagenicity determination (Ames test)” value (Salmonella typhimurium) was “mutagenic positive”.
